Counter-ions that a name gives are not always drawn.
Key:
Experiment in all cases: viability inhibition at highest dose (% inhibition); higher = more growth inhibition
MCF-7 = details: 72 h
Method: (§1)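 Percent inhibition of viability (CellTiter-Glo, 72 h) at the highest tested concentration (D5), normalised to DMSO (0%) and 100 µM benzethonium chloride (100%). Resistant lines and the 'in 1µM tamoxifen' arms were tested in 1 µM 4-OH-tamoxifen.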

BT-474 Tam2 = details: 4-OH-tamoxifen in medium 1 µM; 72 h
Method: as §1

T-47D Tam1 = details: 4-OH-tamoxifen in medium 1 µM; 72 h
Method: as §1

ZR-75-1 Tam2 = details: 4-OH-tamoxifen in medium 1 µM; 72 h
Method: as §1

BT-474 = details: 72 h
Method: as §1

T-47D = details: 72 h
Method: as §1

ZR-75-1 Tam1 = details: 4-OH-tamoxifen in medium 1 µM; 72 h
Method: as §1

ZR-75-1 = details: 72 h
Method: as §1

BT-474 Tam1 = details: 4-OH-tamoxifen in medium 1 µM; 72 h
Method: as §1

T-47D Tam2 = details: 4-OH-tamoxifen in medium 1 µM; 72 h
Method: as §1

MCF-7 Tam1 = details: 4-OH-tamoxifen in medium 1 µM; 72 h
Method: as §1

Row | Compound | viability inhibition at highest dose (MCF-7; 4-OH-tamoxifen in medium 0 µM) | viability inhibition at highest dose (MCF-7; 4-OH-tamoxifen in medium 1 µM) | viability inhibition at highest dose (BT-474 Tam2) | viability inhibition at highest dose (T-47D Tam1) | viability inhibition at highest dose (ZR-75-1 Tam2) | viability inhibition at highest dose (BT-474; 4-OH-tamoxifen in medium 0 µM) | viability inhibition at highest dose (BT-474; 4-OH-tamoxifen in medium 1 µM) | viability inhibition at highest dose (T-47D; 4-OH-tamoxifen in medium 0 µM) | viability inhibition at highest dose (T-47D; 4-OH-tamoxifen in medium 1 µM) | viability inhibition at highest dose (ZR-75-1 Tam1) | viability inhibition at highest dose (ZR-75-1; 4-OH-tamoxifen in medium 0 µM) | viability inhibition at highest dose (ZR-75-1; 4-OH-tamoxifen in medium 1 µM) | viability inhibition at highest dose (BT-474 Tam1) | viability inhibition at highest dose (T-47D Tam2) | viability inhibition at highest dose (MCF-7 Tam1)
1 | CC(=O)Nc1cccc(-n2c(=O)n(C3CC3)c(=O)c3c(Nc4ccc(I)cc4F)n(C)c(=O)c(C)c32)c1 (drug 250 nM) | 2.23 | 17.3 | -15.8 | 12.5 | 1.99 | -8.37 | 18.2 | -2.33 | 10.4 | 2.29 | -3.05 | 5.16 | 8.35 | 26.5 | 10.6
2 | COc1cc2c(Oc3ccc(NC(=O)C4(C(=O)Nc5ccc(F)cc5)CC4)cc3F)ccnc2cc1OCCCN1CCOCC1 [Foretinib (Foretinib)] (drug 1000 nM) | 16.9 | 20.7 | 10.3 | 19 | 19.5 | 1.4 | 44.6 | 20.6 | 17.8 | 9.43 | 0.383 | 13.7 | 31.4 | 28.5 | 26.2
3 | Cc1c(CN2CCN(C(=O)[C@H](C)O)CC2)sc2c(N3CCOCC3)nc(-c3cnc(N)nc3)nc12 [GDC-0980] (drug 10000 nM) | 74 | 73.4 | 84.3 | 67.1 | 72.1 | 60.1 | 86.3 | 73.8 | 72.1 | 66.6 | 64.4 | 56.3 | 87.4 | 64 | 52.1
4 | COC1=C2C[C@@H](C)C[C@H](OC)[C@H](O)[C@@H](C)/C=C(\C)[C@H](OC(N)=O)[C@@H](OC)/C=C\C=C(/C)C(=O)NC(=CC1=O)C2=O [Geldanamycin] (drug 10000 nM) | 85.8 | 78.5 | 82.1 | 82.4 | 66.7 | 67.6 | 69.7 | 73.3 | 74.9 | 69 | 62 | 80.5 | 83.6 | 67.1 | 58.9
5 | CO[C@H]1C[C@@H]2CC[C@@H](C)[C@@](O)(O2)C(=O)C(=O)N2CCCC[C@H]2C(=O)O[C@H]([C@H](C)C[C@@H]2CC[C@@H](OCCO)[C@H](OC)C2)CC(=O)[C@H](C)/C=C(\C)[C@@H](O)[C@@H](OC)C(=O)[C@H](C)C[C@H](C)/C=C/C=C/C=C/1C [Everolimus] (drug 100 nM) | 47.5 | 34.3 | 15.8 | 28.2 | 38.4 | 15.8 | 11.4 | 29.1 | 24 | 34.2 | 35.9 | 32.7 | 22.1 | 25.9 | 15.6
6 | COc1cc2/c(=N/c3ccc(Br)cc3F)nc[nH]c2cc1OCC1CCN(C)CC1 [Vandetanib  (ZD6474, Zactima)] (drug 1000 nM) | 15.2 | 11.9 | 15 | 11.5 | 0.544 | 2.03 | 5.94 | -1.36 | -3.82 | 4.94 | -14.7 | -3 | 22 | 20.8 | -0.506
7 | Nc1nc(Cl)nc2c1ncn2[C@H]1C[C@H](O)[C@@H](CO)O1 [Cladribine] (drug 1000 nM) | -15.2 | 6.39 | -11.6 | 25.8 | 20 | -15.8 | -9.47 | -1.69 | -2.3 | 21 | 15.2 | 15.8 | -9.7 | 11.4 | -0.292
8 | O=NN(CCCl)C(=O)NCCCl [Carmustine] (drug 10000 nM) | -2.85 | 5.33 | 4.36 | 0.948 | 0.516 | -6.34 | -3.07 | -12.6 | -5.73 | -2.37 | -12.9 | -8.4 | -0.31 | 2.64 | -12.7
9 | Cc1[nH]c2ccccc2c1CCNCc1ccc(/C=C/C(=O)NO)cc1 [Panobinostat] (drug 1000 nM) | 89.4 | 88.4 | 69.6 | 85.3 | 51.4 | 87.5 | 97.2 | 96.4 | 95.5 | 43.1 | 50.5 | 40.7 | 84.4 | 68.7 | 21.3
10 | COc1ccccc1S(=O)(=O)Nc1ccc2c(c1)CN(C)C(=O)N2 [PFI-1] (drug 10000 nM) | 44.2 | 38.1 | 30.3 | 36.4 | 25.8 | 32.8 | 25.7 | 26.2 | 14 | 23.8 | 13.1 | 25.2 | 25.7 | 32.8 | 4.98
11 | CC(C)(C)c1cnc(CSc2cnc(NC(=O)C3CCNCC3)s2)o1 [SNS-032] (drug 10000 nM) | 47.4 | 51.2 | 87.2 | 49.1 | 52.6 | 10.3 | 33.1 | 22.4 | 4.07 | 45.3 | 42.4 | 43.3 | 88.7 | 32 | 31.3
12 | O=P(O)(O)C(O)(Cn1ccnc1)P(=O)(O)O [Zoledronic acid] (drug 10000 nM) | -12.6 | -12.2 | -6.19 | -5.82 | -9.06 | -0.0303 | -3.42 | -11.4 | -6.56 | -0.251 | -6.71 | -4.06 | 2.75 | 1.06 | -6.7
13 | O=C(Nc1cccnc1)N1CCC(Cc2cccc(Oc3ccc(C(F)(F)F)cn3)c2)CC1 [PF-3845] (drug 10000 nM) | 53.1 | 58.6 | 95.7 | 52.3 | 49.9 | 72 | 81.8 | 40.6 | 25.3 | 39.4 | 30.5 | 51.3 | 95.4 | 36.1 | 29.1
14 | CCN1CCN(c2ccc(Nc3cc(N(C)C(=O)Nc4c(Cl)c(OC)cc(OC)c4Cl)ncn3)cc2)CC1 [NVP-BGJ398] (drug 1000 nM) | -15.8 | 2.98 | 5.89 | 5.28 | -4.28 | -15.6 | 1.03 | -9.62 | 3.56 | -4.94 | -1.6 | -10.3 | 14.4 | -8.43 | 0.341
15 | c1ccc([C@H]2CN3CCSC3=N2)cc1 [Levamisole, (Tetramisole hydrochloride)] (drug 10000 nM) | -9.38 | 1.67 | 4.72 | -4.38 | 4.7 | -0.587 | -3.62 | 1.99 | -2.51 | -0.419 | 1.62 | 3.25 | -1.57 | 3.27 | -9.5
16 | C[C@@H](Oc1cc(-c2cnn(C3CCNCC3)c2)cnc1N)c1c(Cl)ccc(F)c1Cl [Crizotinib] (drug 1000 nM) | 0.562 | 6.55 | 7.24 | 0.597 | 0.924 | -4.38 | -15.8 | -19.1 | -7.52 | 0.927 | -7.38 | -5.41 | 4.07 | 2.79 | -0.481
17 | CC(O)(CS(=O)(=O)c1ccc(F)cc1)C(=O)Nc1ccc(C#N)c(C(F)(F)F)c1 (stereo not given) [Bicalutamide] (drug 10000 nM) | -0.676 | 5.7 | -6.57 | 5.87 | -0.971 | -18.1 | -8.62 | -16.4 | 10.8 | -0.584 | -10.4 | 1.52 | -10.4 | 14.4 | -6.64
18 | COCC1(CO)C(=O)C2CCN1CC2 (stereo not given) [Prima-1 Met] (drug 10000 nM) | 10.8 | 3.83 | 0.869 | 1.75 | 17.7 | -9.27 | -13.3 | -7.38 | -11.1 | -1.64 | -1.59 | -9.16 | -5.47 | -9.64 | -10.1
19 | N#CCNC(=O)c1ccc(-c2ccnc(Nc3ccc(N4CCOCC4)cc3)n2)cc1 [Momelotinib (CYT-387)] (drug 10000 nM) | 48.5 | 69 | 31.1 | 39.2 | 8.52 | 3.98 | -26.5 | 22.8 | 17.9 | 7.45 | 6.2 | 5.38 | 38.6 | 40 | 43.1
20 | C[C@]1(c2nc3c(C(N)=O)cccc3[nH]2)CCCN1 [Veliparib  (ABT-888)] (drug 10000 nM) | 8.41 | -2.66 | -7.23 | 2.73 | 6.18 | -7.48 | 9.81 | -14.2 | -15.3 | 2.16 | -8.51 | 2.27 | 6.83 | 6.94 | -2.94
21 | CO[C@H]1/C=C\C=C(/C)C(=O)NC2=CC(=O)C(NCCN(C)C)=C(C[C@@H](C)C[C@H](OC)[C@H](O)[C@@H](C)/C=C(\C)[C@@H]1OC(N)=O)C2=O [Alvespimycin (17-DMAG)] (drug 1000 nM) | 65 | 47.8 | 68.2 | 35 | 44.1 | 49 | 76.7 | 49.9 | 37.1 | 32.9 | 32.7 | 47 | 78.3 | 49.2 | 30.2
